Where a SMILES comes first, the peptide text is derived from it. Bridges are numbered along the chain shown (N, C = ends). [ ]: non-standard residue; d: D form. The star is where a group is joined. hPhe(3-Cl-4-CF3) = N[C@@H](CCc1ccc(C(F)(F)F)c(Cl)c1)C(=O)O; NPrPhe(4-CF3) = CCCN[C@@H](Cc1ccc(C(F)(F)F)cc1)C(=O)O; 3Oxa8azabicyclo(3.2.1)octane = C1CC2COCC1N2*; NEtPhe(4-Me) = CCN[C@@H](Cc1ccc(C)cc1)C(=O)O; NMeGly(cPent) = CN[C@H](C(=O)O)C1CCCC1; NMeD = CN[C@@H](CC(=O)O)C(=O)O; NMeL = CN[C@@H](CC(C)C)C(=O)O; Morpholide = C1CN(*)CCO1; NMeA = CN[C@@H](C)C(=O)O; Ac5c = NC1(C(=O)O)CCCC1; Aze = O=C(O)[C@@H]1CCN1; NEtG = CCNCC(=O)O; Sar = CNCC(=O)O
Tests used:
[1] = target: GDP-bound NRAS wild-type protein (Homo sapiens, UniProt P01111); assay: Binding to NRAS by surface plasmon resonance (SPR), Single Cycle Kinetics; conditions: for NRAS/KRAS (ratio of KD value with respect to NRAS to KD value with respect to KRAS): GDP-bound NRAS wild-type vs GDP-bound KRAS wild-type
[2] = target: GDP-bound HRAS wild-type protein (Homo sapiens, UniProt P01112); assay: Binding to HRAS by surface plasmon resonance (SPR), Single Cycle Kinetics; conditions: for HRAS/KRAS (ratio of KD value with respect to HRAS to KD value with respect to KRAS): GDP-bound HRAS wild-type vs GDP-bound KRAS wild-type
GDP-bound HRAS wild-type protein, sequence (P01112 whole entry): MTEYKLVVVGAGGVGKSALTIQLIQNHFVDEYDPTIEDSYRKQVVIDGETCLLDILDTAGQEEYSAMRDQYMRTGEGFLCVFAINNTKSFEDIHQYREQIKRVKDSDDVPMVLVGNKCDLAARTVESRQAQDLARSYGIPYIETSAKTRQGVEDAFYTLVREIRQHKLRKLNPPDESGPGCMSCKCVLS

GDP-bound NRAS wild-type protein, sequence (P01111 whole entry): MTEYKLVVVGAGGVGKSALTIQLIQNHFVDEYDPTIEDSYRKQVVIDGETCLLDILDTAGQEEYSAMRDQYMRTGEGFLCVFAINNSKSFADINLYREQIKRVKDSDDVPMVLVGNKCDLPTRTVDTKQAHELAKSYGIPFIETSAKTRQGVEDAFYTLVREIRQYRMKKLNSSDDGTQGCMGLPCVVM

How did the “NRAS/KRAS (ratio of KD value with respect to NRAS to KD value with respect to KRAS)” value ([1]; KD ratio, SPR) turn out when CCO[C@@H]1C[C@H]2C(=O)NC3(CCC3)C(=O)N(C)[C@@H](C3CCCC3)C(=O)N(C)[C@H](C(=O)N3CCOCC3)CC(=O)N(C)[C@@H](CC(C)C)C(=O)N[C@@H]([C@@H](C)CC)C(=O)N3CC[C@H]3C(=O)N(C)[C@H]3C[C@@H](C)CCN(C3=O)[C@@H](Cc3ccc(C(F)(F)F)cc3)C(=O)N(C)CC(=O)N[C@@H](CCc3cc(F)c(C(F)(F)F)c(F)c3)C(=O)N2C1 [PP1026] was run?
The value was “B (a compound having 3 or more and less than 10 is denoted as B)”.

And the “HRAS/KRAS (ratio of KD value with respect to HRAS to KD value with respect to KRAS)” value ([2]; KD ratio, SPR)?
The value was “B (a compound having 3 or more and less than 10 is denoted as B)”.

What does the source list for CCO[C@@H]1C[C@H]2C(=O)NC3(CCC3)C(=O)N(C)[C@@H](C3CCCC3)C(=O)N(C)[C@H](C(=O)N(C)CC)CC(=O)N(C)[C@H]3CCCCCc4ccc(cc4)C[C@@H](C(=O)N(C)CC(=O)N[C@@H](CCc4ccc(C(F)(F)F)c(OC)c4)C(=O)N2C1)N1CC/C=C\C[C@@H](C1=O)N(C)C(=O)CN(C)C(=O)[C@H]([C@@H](C)CC)NC3=O [PP2118]?
NRAS/KRAS (ratio of KD value with respect to NRAS to KD value with respect to KRAS) ([1]; SPR): A (a compound having 10 or more and less than 20 is denoted as A); HRAS/KRAS (ratio of KD value with respect to HRAS to KD value with respect to KRAS) ([2]; SPR): B (a compound having 3 or more and less than 10 is denoted as B)

CCCN1C(=O)[C@@H]2CCN2C(=O)[C@H](C)N(C)C(=O)[C@H]([C@@H](C)CC)NC(=O)[C@H](CC(C)C)N(C)C(=O)C[C@@H](C(=O)N2C3CCC2COC3)N(C)C(=O)[C@H](C2CCCC2)N(C)C(=O)C2(CCCC2)NC(=O)[C@@H]2CCCN2C(=O)[C@H](CCc2ccc(C(F)(F)F)c(Cl)c2)NC(=O)CN(C)C(=O)[C@@H]1Cc1ccc(C(F)(F)F)cc1 [PP0182] ([NMeL]I[NMeA][Aze][NPrPhe(4-CF3)][Sar][hPhe(3-Cl-4-CF3)]P[Ac5c][NMeGly(cPent)][NMeD]-{3Oxa8azabicyclo(3.2.1)octane}; lactam N-11) was tested. Which “NRAS/KRAS (ratio of KD for GDP-bound NRAS wild-type to KD for KRAS)” value ([1]; SPR) did it give?
Its value is “C (A compound having a KD ratio of 0.1 or more and less than 3 is denoted as C)”.

And the “HRAS/KRAS (ratio of KD for GDP-bound HRAS wild-type to KD for KRAS)” value ([2]; SPR)?
The value was “B (a compound having 3 or more and less than 10 is denoted as B)”.

What does the source list for CCO[C@@H]1C[C@H]2C(=O)NC3(CCC3)C(=O)N(C)[C@@H](C3CCCC3)C(=O)N(C)[C@H](C(=O)N(C)C)CC(=O)N(C)[C@@H](CCC(F)F)C(=O)N[C@@H]([C@@H](C)CC)C(=O)N(C)CC(=O)N(C)[C@H]3C/C=C\CCN(C3=O)[C@@H](Cc3ccc(C(F)(F)F)cc3)C(=O)N(C)CC(=O)N[C@@H](CCc3cc(F)c(C(F)(F)F)c(F)c3)C(=O)N2C1 [PP1121]?
NRAS/KRAS (ratio of KD value with respect to NRAS to KD value with respect to KRAS) ([1]; KD ratio, SPR): A (a compound having 10 or more and less than 20 is denoted as A); HRAS/KRAS (ratio of KD value with respect to HRAS to KD value with respect to KRAS) ([2]; KD ratio, SPR): A (a compound having 10 or more and less than 20 is denoted as A)

Which “NRAS/KRAS (ratio of KD value with respect to GDP-bound NRAS wild-type protein to KD value with respect to KRAS)” value ([1]; class symbols) does the source give for CCC[C@H]1C(=O)N[C@@H]([C@@H](C)CC)C(=O)N(C)CC(=O)N(C)[C@H]2C/C=C\CCN(C2=O)[C@@H](Cc2ccc(C(F)F)cc2)C(=O)N(C)CC(=O)N[C@@H](CCc2ccc(Cl)c(Cl)c2)C(=O)N2C[C@H](OCC)C[C@H]2C(=O)NC2(CC(C)(C)C2)C(=O)N(C)[C@@H](C(CC)CC)C(=O)N(C)[C@H](C(=O)N(C)C)CC(=O)N1C [PP2531] here?
Its value is “AA (a compound having 20 or more is denoted as AA)”.

And the “HRAS/KRAS (ratio of KD value with respect to GDP-bound HRAS wild-type protein to KD value with respect to KRAS)” value ([2]; class symbols)?
Its value is “A (a compound having 10 or more and less than 20 is denoted as A)”.

Which results are given for CCO[C@@H]1C[C@H]2C(=O)NC3(CCC3)C(=O)N(C)[C@@H](C3CCCC3)C(=O)N(C)[C@H](C(=O)N(C)C)CC(=O)N(C)[C@@H](CC3CCC3)C(=O)N[C@@H]([C@@H](C)CC)C(=O)N(C)CC(=O)N(C)[C@H]3CCCCN(C3=O)[C@@H](Cc3ccc(C(F)(F)F)cc3)C(=O)N(C)CC(=O)N[C@@H](CCc3cc(F)c(C(F)(F)F)c(F)c3)C(=O)N2C1 [PP0698]?
NRAS/KRAS (ratio of KD value with respect to GDP-bound NRAS wild-type protein to KD value with respect to KRAS) ([1]; SPR): C (A compound having a KD ratio of 0.1 or more and less than 3 is denoted as C); HRAS/KRAS (ratio of KD value with respect to GDP-bound HRAS wild-type protein to KD value with respect to KRAS) ([2]; SPR): C (A compound having a KD ratio of 0.1 or more and less than 3 is denoted as C)

How did the “NRAS/KRAS (ratio of KD for GDP-bound NRAS wild-type to KD for KRAS)” value ([1]; SPR) turn out when CC[C@H](C)[C@@H]1NC(=O)[C@H](CC(C)C)N(C)C(=O)C[C@@H](C(=O)N2CCOCC2)N(C)C(=O)[C@H](C2CCCC2)N(C)C(=O)C2(CCCC2)NC(=O)[C@@H]2CCCN2C(=O)[C@H](CCc2ccc(C(F)(F)F)c(Cl)c2)NC(=O)CN(CC)C(=O)[C@H](Cc2ccc(C)cc2)N(CC)C(=O)[C@@H]2CCN2C(=O)[C@H](C)N(C)C1=O [PP0006] ([NMeL]I[NMeA][Aze][NEtPhe(4-Me)][NEtG][hPhe(3-Cl-4-CF3)]P[Ac5c][NMeGly(cPent)][NMeD]-Morpholide; lactam N-11) was run?
Its value is “C (A compound having a KD ratio of 0.1 or more and less than 3 is denoted as C)”.

What about the “HRAS/KRAS (ratio of KD for GDP-bound HRAS wild-type to KD for KRAS)” value ([2]; SPR) of the same compound?
The value was “C (A compound having a KD ratio of 0.1 or more and less than 3 is denoted as C)”.

— US20250230193A1, “CYCLIC COMPOUND HAVING SELECTIVE KRAS INHIBITORY EFFECT ON HRAS AND NRAS” (CHUGAI SEIYAKU KABUSHIKI KAISHA, priority 2022, published 2025)
